Structures can show the parent of a compound that is named as a salt.
Assay: Bloodwork: complete blood count, electrolytes, extended blood chemistry
Assay type: in vivo, sheep
Description: Indirect blood pressure, pulse recording, pain testing (mechanical stimulus device, cold and warm water baths see description in procedure) and weight were taken on days 1, 3, 7, 15, 22, 29, 36, and 43. Venous blood samples (15 ml drawn from the jugular vein with Vacutainer brand blood collection tubes) for complete blood count, electrolytes, and extended blood chemistry were drawn on days 1, 15, and 43 (mild procedure only light hand restraint necessary).

[1] = sheep Chicken Hawk #87, 5 mg/day, Day 1
[2] = sheep Chicken Hawk #87, 5 mg/day, Day 15
[3] = sheep Chicken Hawk #87, 5 mg/day, Day 43
[4] = sheep Elmer Fudd #437, 5 mg/day, Baseline
[5] = sheep Elmer Fudd #437, 5 mg/day, Day 1
[6] = sheep Elmer Fudd #437, 5 mg/day, Day 15
[7] = sheep Elmer Fudd #437, 5 mg/day, Day 43

Cc1ncc2n1-c1ccc(Cl)cc1C(c1ccccc1F)=NC2 [Midazolam, midazolam hydrochloride]
Glucose [1]: 67 mg/dL
Hct [1]: 34.1%
Hgb [1]: 11.7 g/dL
K+ [1]: 4.5 mEq/l
MCH [1]: 30.9 pg
MCHC [1]: 34.3 g/dL
MCV [1]: 30.19 fL
Na+ [1]: 150 mEq/l
Phos [1]: 6.6 mg/dL
Platlet Count [1]: 1.28e+06 µL⁻¹
RBC [1]: 1.1e+07 µL⁻¹
Total Bili [1]: 0.1 mg/dL
Total Prot [1]: 5.7 g/dL
WBC [1]: 6000 µL⁻¹
ALT [2]: 6 U/L
AST [2]: 58 U/L
Albumin [2]: 3.8 g/dL
Alk Phos [2]: 79 U/L
BUN [2]: 17 mg/dL
CPK [2]: 425 U/L
Cholesterol [2]: 61 mg/dL
Creatinine [2]: 1.3 mg/dL
Differential Count: Atyp lym [2]: 0%
Differential Count: Baso [2]: 1%
Differential Count: Eosin [2]: 4%
Differential Count: Lymph [2]: 62%
Differential Count: Mono [2]: 4%
Differential Count: Seg [2]: 29%
Gamma GT [2]: 64 U/L
Glucose [2]: 79 mg/dL
Hct [2]: 29.8%
Hgb [2]: 10.0 g/dL
K+ [2]: 4.7 mEq/l
MCH [2]: 10.4 pg
MCHC [2]: 33.6 g/dL
MCV [2]: 30.8 fL
Na+ [2]: 148 mEq/l
Phos [2]: 5.0 mg/dL
Platlet Count [2]: 1.018e+06 µL⁻¹
RBC [2]: 9.7e+06 µL⁻¹
Total Bili [2]: 0.1 mg/dL
Total Prot [2]: 6.2 g/dL
WBC [2]: 5690 µL⁻¹
ALT [3]: 8 U/L
AST [3]: 62 U/L
Albumin [3]: 3.8 g/dL
Alk Phos [3]: 149 U/L
BUN [3]: 14 mg/dL
CPK [3]: 61 U/L
Cholesterol [3]: 62 mg/dL
Creatinine [3]: 1.1 mg/dL
Differential Count: Atyp lym [3]: 1%
Differential Count: Baso [3]: 1%
Differential Count: Eosin [3]: 5%
Differential Count: Lymph [3]: 53%
Differential Count: Mono [3]: 3%
Differential Count: Seg [3]: 37%
Gamma GT [3]: 55 U/L
Glucose [3]: 82 mg/dL
Hct [3]: 32.3%
Hgb [3]: 10.7 g/dL
K+ [3]: 5.0 mEq/l
MCH [3]: 10.5 pg
MCHC [3]: 33.0 g/dL
MCV [3]: 31.7 fL
Na+ [3]: 147 mEq/l
Phos [3]: 6.5 mg/dL
Platlet Count [3]: 891000 µL⁻¹
RBC [3]: 1.02e+07 µL⁻¹
Total Bili [3]: 0.1 mg/dL
Total Prot [3]: 6.5 g/dL
WBC [3]: 5130 µL⁻¹
Differential Count: Atyp lym [4]: 0%
Differential Count: Bands [4]: 0%
Differential Count: Eosin [4]: 54%
Differential Count: Lymph [4]: 35%
Differential Count: Mono [4]: 9%
Differential Count: Seg [4]: 51%
Hct [4]: 38.5%
Hgb [4]: 13.4 g/dL
MCH [4]: 12.0 pg
MCHC [4]: 34.7 G/dl
MCV [4]: 34.5 fL
Platlet Count [4]: 562000 µL⁻¹
RBC [4]: 1.12e+07 µL⁻¹
WBC [4]: 5320 µL⁻¹
ALT [5]: 8 U/L
AST [5]: 70 U/L
Albumin [5]: 4.1 g/dL
Alk Phos [5]: 49 U/L
BUN [5]: 17 mg/dL
CPK [5]: 49 U/L
Cholesterol [5]: 78 mg/dL
Creatinine [5]: 1.3 mg/dL
Differential Count: Atyp lym [5]: 0%
Differential Count: Bands [5]: 1%
Differential Count: Eosin [5]: 1%
Differential Count: Lymph [5]: 31%
Differential Count: Mono [5]: 6%
Differential Count: Seg [5]: 61%
Gamma GT [5]: 51 U/L
Glucose [5]: 104 mg/dL
Hct [5]: 36.1%
Hgb [5]: 12.4 g/dL
K+ [5]: 4.7 mEq/l
MCH [5]: 11.4 pg
MCHC [5]: 34.3 G/dl
MCV [5]: 33.4 fL
Na+ [5]: 150 mEq/l
Phos [5]: 5.9 mg/dL
Platlet Count [5]: 788000 µL⁻¹
RBC [5]: 1.08e+07 µL⁻¹
Total Bili [5]: 0.1 mg/dL
Total Prot [5]: 7.4 g/dL
WBC [5]: 6600 µL⁻¹
ALT [6]: 6 U/L
AST [6]: 67 U/L
Albumin [6]: 3.8 g/dL
Alk Phos [6]: 88 U/L
BUN [6]: 15 mg/dL
CPK [6]: 77 U/L
Cholesterol [6]: 74 mg/dL
Creatinine [6]: 1.2 mg/dL
Differential Count: Atyp lym [6]: 0%
Differential Count: Bands [6]: 0%
Differential Count: Eosin [6]: 10%
Differential Count: Lymph [6]: 39%
Differential Count: Mono [6]: 2%
Differential Count: Seg [6]: 49%
Gamma GT [6]: 54 U/L
Glucose [6]: 73 mg/dL
Hct [6]: 37.3%
Hgb [6]: 12.7 g/dL
K+ [6]: 4.7 mEq/l
MCH [6]: 11.2 pg
MCHC [6]: 34.1 G/dl
MCV [6]: 32.8 fL
Na+ [6]: 149 mEq/l
Phos [6]: 6.6 mg/dL
Platlet Count [6]: 677000 µL⁻¹
RBC [6]: 1.14e+07 µL⁻¹
Total Bili [6]: 0.1 mg/dL
Total Prot [6]: 6.8 g/dL
WBC [6]: 4990 µL⁻¹
ALT [7]: 9 U/L
AST [7]: 61 U/L
Albumin [7]: 4.1 g/dL
Alk Phos [7]: 72 U/L
BUN [7]: 16 mg/dL

— patent publication US20040006070A1, “Intraspinal continuous infusion of midazolam hydrochloride for the treatment of pain” (priority 2002, published 2004)
